Results from US9314498B2, “Bacteriocin derived from Lactobacillus rhamnosus” (priority 2011, dated 2016).
Where no end group is shown, it is not given here.

Experiments:
[1] = well known basic antimicrobial peptide, literature; cited from earlier work
[2] = test system: Streptococcus sobrinus B-13 strain; assay: Antimicrobial activity against Streptococcus sobrinus B-13; type: cell-based; conditions: tested 0 to 100 μM
Procedure: [The procedure below names another organism; the source lists this organism under the same test.] (§1) The Candida albicans GDH18 strain was precultured using SD medium (Difco) at 37° C. for 24 hours under aerobic conditions. The Streptococcus sobrinus B-13 strain, Streptococcus mutans NCTC10449 strain and Streptococcus mutans Ingbritt strain were precultured using TSB medium (Difco) supplemented with 5% yeast extract (Difco) at 37° C. for 24 hours under aerobic conditions. The Porphyromonas gingivalis Hudoi001 strain and Aggregatibacter actinomycetemcomitans Hudoe001 strain were precultured using BHI medium (Difco) supplemented with hemin (5 mg/L) and vitamin K3 (1 mg/L) at 37° C. for 96 hours under anaerobic conditions with Anaero Pack System (Mitsubishi Gas Chemical Company, Inc.).
(§2) After the culture, the cells of the Candida, cariogenic bacteria and periodontal disease bacteria were collected by centrifugation at 1000×g, and washed twice with 1 mM phosphate buffer (pH 6.8). The cells were then suspended such that the final concentration was 1×10^8 cfu/ml or 1×10^7 cells/m. For suspension of the Streptococcus strains, ultrasonic treatment was also carried out.
Evaluation of the antimicrobial activity was carried out by the method by Edgerton and others (1998) with some modifications. With 20 mL of 1 mM phosphate buffer containing 0 to 25 μM Kog1 or Kog2 synthesized in Example 1, 20 μl of the suspension of the Candida albicans GDH18 strain cultured and prepared by the method described in the above Preparation Example was mixed, and the resulting mixture was incubated at 37° C. for 90 minutes with shaking. As a control, 20 ml of 1 mM phosphate buffer alone was used. The reaction was stopped by addition of 360 ml of YNB medium (Difco), and the number of colonies formed (colony forming units; CFUs) was counted together with the number of colonies in the control, to determine the percentage of living bacterial cells. That is, the equation of: (CFUs of suspension containing Kog1 or Kog2/CFU ml^−1 of control suspension)×100 was used to calculate the percentage. […]

[3] = test system: Candida albicans GDH18 strain; assay: Antimicrobial activity (CFU count, percentage of living cells) against Candida albicans GDH18; type: cell-based; conditions: 37° C., 90 minutes, 1 mM phosphate buffer
Source text: As the Candida, cariogenic bacteria and periodontal disease bacteria, the Candida albicans GDH18 strain, Streptococcus sobrinus B-13 strain, Streptococcus mutans NCTC10449 strain, Streptococcus mutans Ingbritt strain, Porphyromonas gingivalis Hudoi001 strain and Aggregatibacter actinomycetemcomitans Hudoe001 strain were used. The test strains were provided from Faculty of Dentistry, Hiroshima University, Japan, and Hiroshima University Dental Hospital.
as §1, §2
Evaluation of the antimicrobial activity was carried out by the method by Edgerton and others (1998) with some modifications. With 20 mL of 1 mM phosphate buffer containing 0 to 25 μM Kog1 or Kog2 synthesized in Example 1, 20 μl of the suspension of the Candida albicans GDH18 strain cultured and prepared by the method described in the above Preparation Example was mixed, and the resulting mixture was incubated at 37° C. for 90 minutes with shaking. As a control, 20 ml of 1 mM phosphate buffer alone was used. The reaction was stopped by addition of 360 ml of YNB medium (Difco), and the number of colonies formed (colony forming units; CFUs) was counted together with the number of colonies in the control, to determine the percentage of living bacterial cells. That is, the equation of: (CFUs of suspension containing Kog1 or Kog2/CFU ml^−1 of control suspension)×100 was used to calculate the percentage.

[4] = test system: Aggregatibacter actinomycetemcomitans Hudoe001 strain; assay: Antimicrobial activity against Aggregatibacter actinomycetemcomitans Hudoe001; type: cell-based; conditions: tested 0 to 50 μM
[5] = test system: Streptococcus mutans NCTC10449 strain; assay: Antimicrobial activity against Streptococcus mutans NCTC10449; type: cell-based; conditions: 0 to 100 μM, FIG. 4
[6] = test system: Streptococcus mutans Ingbritt strain; assay: Antimicrobial activity against Streptococcus mutans Ingbritt; type: cell-based; conditions: 0 to 100 μM, FIG. 5
[7] = test system: Porphyromonas gingivalis LPS (P.g-LPS) on RAW264.7 macrophage-like cells, ccl2; assay: LPS inactivation: ccl2 secretion of RAW264.7 cells (ELISA); type: cell-based, mouse; conditions: 100 ng/ml P.g-LPS preincubated 2 hours with 5, 10, 20 μM Kog1; as amount added increased
Procedure: (§3) As a medium, RPMI 1640 medium supplemented with 10% FBS (Fetal Bovine Serum) (Biological industries, Haemek, Israel), 1% antibiotic and 1% L-glutamine was used. In each well of a 24-well plate, 400 μl of the medium was placed, and 100,000 cells/well of mouse-derived RAW264.7 macrophage-like cells were inoculated thereto.
(§4) The bacteriocin Kog1 or Kog2, which was the same as in Example 1, was incubated in an Eppendorf tube under each of the following 4 conditions together with Porphyromonas gingivalis LPS (manufactured by InvivoGen) (hereinafter referred to as P.g-LPS) and the same medium as described above, at 37° C. under a gas phase of 5% CO2 for 2 hours: (1) 100 ng/ml P.g-LPS positive control; (2) 100 ng/ml P.g-LPS+5 μM Kog1 or Kog2; (3) 100 ng/ml P.g-LPS+10 μM Kog1 or Kog2; (4) 100 ng/ml P.g-LPS+20 μM Kog1 or Kog2.
(§5) The above-described medium placed in each well of the 24-well plate was removed using a pipetteman, and the medium in the Eppendorf tube for each of the 4 conditions described above was placed in the plate, followed by culturing the cells in the well plate at 37° C. under a gas phase of 5% CO2 for 12 hours. Thereafter, the culture supernatant was collected, and the amount of a chemokine ccl2 or the amount of a cytokine TNF-α secreted into the medium was quantified by the ELISA method by measuring the absorbance at 450 nm using a microplate reader. Since both ccl2 and TNF-α are involved in formation of inflammation, analysis of the relationship between the endotoxin LPS and the bacteriocins Kog1 and Kog2 is possible.

[8] = Measurement of the isoelectric point of the synthesized peptides; type: physicochemical; conditions: synthesized peptide
Source text: Among antimicrobial peptides, hBD2 (human P-defensin-2 (see Eur J., 2002, Oral Sci. (109), 121-124)) is well known as a basic antimicrobial peptide, and has an isoelectric point of about 10. However, the isoelectric points of Kog1 and Kog2 of the embodiment 2 were higher than the isoelectric point of hBD2, and more similar to the isoelectric points of antimicrobial peptides derived from mammals. Thus, Kog1 and Kog2 were confirmed to have less cytotoxicity.

[9] = test system: Porphyromonas gingivalis LPS (P.g-LPS) on RAW264.7 macrophage-like cells, TNF-α; assay: LPS inactivation: TNF-α secretion of RAW264.7 cells (ELISA); type: cell-based; conditions: 100 ng/ml P.g-LPS preincubated 2 hours with 5, 10, 20 μM Kog1; as amount added increased
Procedure: as §3, §4, §5

[10] = test system: Porphyromonas gingivalis Hudoi001 strain; assay: Antimicrobial activity against Porphyromonas gingivalis Hudoi001; type: cell-based; conditions: not shown in the figures
Procedure: as §1, §2
That is, it is assumed that, in Examples described in Patent Literature 1, the Lactobacillus rhamnosus KO3 strain expressed Kog1 and Kog2, and the expressed Kog1 and Kog2 exerted antimicrobial activity against the Porphyromonas gingivalis Hudoi001 strain. […]

[11] = test system: Candida albicans MYA274 strain; assay: Boiling experiment: antimicrobial activity (ATP) against Candida albicans MYA274; type: cell-based; conditions: concluded from supernatant boiled at 100° C. for 20 minutes; peptides not directly used
Procedure: In Example 9, antimicrobial activity against the Candida albicans MYA274 strain was investigated. The Candida albicans MYA274 strain was precultured in Sabouraud dextrose broth (Difco) at 37° C. for 24 hours, and then washed twice with MQ water, followed by being prepared such that OD600 is 0.3 (1.0×10^7 cells/ml).
In Example 9, the bacteriocin Kog1 or Kog2, or the Lactobacillus rhamnosus KO1 strain or KO3 strain, was not directly used. Instead, a lactic acid bacterium medium containing the Lactobacillus rhamnosus KO3 strain, 8020 yogurt (liquid type), was used in the experiment More specifically, the 8020 yogurt (liquid type) was prepared by adding the Lactobacillus rhamnosus KO3 strain at a concentration of 1% and YF-L811 starter at a concentration of 1% to the 15% skim milk+3% glucose medium, and then performing culture at 35° C. for 2 days.
Such 8020 yogurt (liquid type) was centrifuged to obtain a supernatant from which the lactic acid bacterium was removed (hereinafter referred to as Supernatant B). In the experiment, Supernatant B and a sample prepared by boiling Supernatant B at 100° C. for 20 minutes (hereinafter referred to as Supernatant Boil) were used. […]
In order to study changes in the antimicrobial activity by boiling, the following 3 kinds of samples were placed in a 24-well plate, and the value of ATP (pmol/L) after 24 hours of incubation at 37° C. was measured. […]

hBD2: human β-defensin-2, well known basic antimicrobial peptide (GIGDPVTCLKSGAICHPVFCPRRYKQIGTCGLPGTKCCKKP; ends and bridges not checked; cysteine pairing not given here; UniProt O15263 24-64, looked up) [reference compound]
isoelectric point [1]: about 10 | peptide concentration at which 100% of the strain was killed [2]: 3.125 µM

JH8194: antimicrobial peptide of JP 3472821 B (amino acid sequence shown in SEQ ID NO: 7) (KRLFRRWQWRMKKY; Antimicrobial peptide)
peptide concentration at which 100% of the strain was killed [3]: 2.5 µM

Kog1: peptide having the amino acid sequence shown in SEQ ID NO: 1, bacteriocin of Lactobacillus rhamnosus, synthesized by the tea-bag method (MAKARPSRPRPLTLRSLTAPAHAHKKWASRWILSMRLARVFGIEKPHG; listed as Lactobacillus rhamnosus)
peptide concentration at which 100% of the strain was killed [4]: 3.13 µM | peptide concentration at which 100% of the strain was killed [3]: 0.39 µM | antimicrobial activity compared to the other antimicrobial peptides (hBD2, lysozyme) [5]: capable of killing a larger amount of Streptococcus mutans even at relatively low peptide concentration | antimicrobial activity compared to the other antimicrobial peptides (hBD2, lysozyme) [6]: capable of killing a larger amount of Streptococcus mutans even at relatively low peptide concentration | peptide concentration at which 100% of the strain was killed [2]: 1.56 µM | amount of the chemokine ccl2 secreted [7]: decreased | isoelectric point (pl) [8]: 12.90 | amount of the cytokine TNF-α secreted [9]: decreased | antimicrobial activity [10]: capable of exerting antimicrobial activity | heat resistance (antimicrobial activity after heating) [11]: still maintain antimicrobial activity after heating

C[C@@H]1[C@H](O)[C@@H](C)/C=C/C=C/C=C/C=C/C=C/C=C/C=C/[C@H](O[C@@H]2O[C@H](C)[C@@H](O)[C@H](N)[C@@H]2O)C[C@@H]2O[C@](O)(C[C@@H](O)C[C@@H](O)[C@H](O)CC[C@@H](O)C[C@@H](O)CC(=O)O[C@H]1C)C[C@H](O)[C@H]2C(=O)O [amphotericin B]
peptide concentration at which 100% of the strain was killed [3]: 5 µM

lactoferricin B: antimicrobial peptide derived from milk (amino acid sequence shown in SEQ ID NO: 5) (FKCRRWQWRMKKLGAPSITCVRRAF; Antimicrobial peptide)
peptide concentration at which 100% of the strain was killed [3]: 5 µM

histatin 5: antimicrobial peptide derived from human saliva (amino acid sequence shown in SEQ ID NO: 6) (DSHEKRHHGYKRKFHEKHHSHRGY; Antimicrobial peptide)
peptide concentration at which 100% of the strain was killed [3]: 100 µM
